# Data from US8486945B2, “Heterocyclic inhibitors of an Hh-signal cascade, medicinal compositions based thereon and methods for treating diseases caused by the aberrant activity of an Hh-signal system” (priority 2007, dated 2013).
# Tested on: Hh-signalling cascade
# Assay: Inhibition of SHh-induced alkaline phosphatase in C3H10T1/2 cells (Hh-signalling cascade inhibition)
# Assay type: cell-based
# Conditions: Mus musculus, C3H 10T1/2, half maximal inhibition of SHh (0.3 μg/ml) stimulation of cell alkaline phosphatase
# Source text: C3H10T1/2 Cells were used for identification of inhibitors of SHh-protein signaling cascade. SHh-protein activates C3H10T1/2 cells, that leads to their osteogenic differentiation [1) Kinto N., Iwamoto M., Enomoto-Iwamoto M., Noji S., Ohuchi H., Yoshioka H., Kataoka H., Wada Y., Yuhao G., Takahashi H. E., Yoshiki S., Yamaguchi A. Fibroblasts expressing Sonic hedgehog induce osteoblast differentiation and ectopic bone formation. FEBS Lett. 1997; 404(2-3): 319-23. 2) Spinella-Jaegle S., Rawadi G., Kawai S., Gallea S., Faucheu C., Mollat P., Courtois B., Bergaud B., Ramez V., Blanchet A. M., Adelmant G., Baron R., Roman-Roman S. Sonic hedgehog increases the commitment of pluripotent mesenchymal cells into the osteoblastic lineage and abolishes adipocytic differentiation. J. Cell Sci. 2001; 114(Pt 11): 2085-94] and, in particular, to expression enhancement of alkaline phosphatase enzyme.
# The cells were cultivated in DMEM medium with 10% embryonal calfish serum in incubator at 37° C., 100% humidity and 5% CO2 content. The cells were placed in 384-well plates and left for night. On the next day the tested compounds in concentration of 10 μM were added to the cells, incubated for 30 min, then recombinant (R & D Systems, USA) SHh protein in concentration of 0.3 μg/ml was added and incubation was continued for 3 days. Cells with DMSO instead of a test compound and cells without SHh protein were used as test control. For determination of the cell alkaline phosphatase activity the cells were lysed in the buffer containing 0.2% Triton-X100, lisates were incubated together with proluminescent substrate CSPD (Applied Biosystems, USA) and the resultant luminescence was measured using reader VICTOR^2V (PerkinElmer, USA).
# The ability of the compounds to inhibit Hh-signalling cascade was determined using C3H10T1/2 cells in 384-well plates as described in example 1. The compounds were added in triplicates in various concentrations, prepared by multiple dilution of starting solutions (concentration dependences of cell alkaline phosphatase inhibition induced by the addition of tested compounds are shown in FIG. 1). Activity of the compounds was characterized by their concentrations produced half maximal inhibition of stimulation of cell alkaline phosphatase SHh (IC50).
row,SMILES,IC50 [µM]
1,"Cc1nn(-c2ccccc2)c2c1N(CC(=O)NCc1ccccn1)C(=O)CS2 [II-1003, 2-(3-Methyl-5-oxo-1-phenyl-5,6-dihydro-1H-pyrazolo[3,4-b][1,4]thiazin-4-yl)-N-(pyridin-2-ylmethyl)acetamide]",< 5
2,"COc1ccc(CCNC(=O)CN2C(=O)CSc3c2c(C)nn3-c2ccccc2)cc1OC [II-1005, N-[2-(3,4-Dimethoxyphenyl)ethyl]-2-(3-methyl-5-oxo-1-phenyl-5,6-dihydro-1H-pyrazolo[3,4-b][1,4]thiazin-4-yl)acetamide]",< 50
3,"COc1ccc(CNC(=O)CN2C(=O)CSc3c2c(C)nn3-c2ccccc2)cc1 [II-1007, N-(4-Methoxybenzyl)-2-(3-methyl-5-oxo-1-phenyl-5,6-dihydro-1H-pyrazolo[3,4-b][1,4]thiazin-4-yl)acetamide]",< 50
4,"Cc1nn(-c2ccccc2)c2c1N(CC(=O)NC(C)C)C(=O)CS2 [II-1008, N-Isopropyl-2-(3-methyl-5-oxo-1-phenyl-5,6-dihydro-1H-pyrazolo[3,4-b][1,4]thiazin-4-yl)acetamide]",> 50
5,"Cc1nn(-c2ccccc2)c2c1N(CC(=O)NCCN1CCOCC1)C(=O)CS2 [II-1010, 2-(3-Methyl-5-oxo-1-phenyl-5,6-dihydro-1H-pyrazolo[3,4-b][1,4]thiazin-4-yl)-N-(2-morpholin-4-yl)ethylacetamide]",> 50
6,"CNC(=O)CN1C(=O)CSc2c1c(C)nn2-c1ccccc1 [II-1011, N-Methyl-2-(3-methyl-5-oxo-1-phenyl-5,6-dihydro-1H-pyrazolo[3,4-b][1,4]thiazin-4-yl)acetamide]",> 50
7,"Cc1nn(-c2ccccc2)c2c1N(CC(=O)N1CCCC1)C(=O)CS2 [II-1013, 3-Methyl-4-[2-oxo-2-(pyrrolidin-1-yl)ethyl]-1-phenyl-1,4-dihydropyrazolo[3,4-b][1,4]thiazin-5-one]",> 50
8,"COc1ccc(NC(=O)CCCN2C(=O)CSc3c2c(C)nn3-c2ccccc2)cc1 [II-1026, N-(4-Methoxyphenyl)-4-(3-methyl-5-oxo-1-phenyl-5,6-dihydro-1H-pyrazolo[3,4-b][1,4]thiazin-4-yl)butyramide]",< 50
9,"COc1cccc(C(=O)Nc2ccc(-c3cn4ccccc4n3)cc2)c1 [III-1001, N-(4-(Imidazo[1,2-a]pyridin-2-yl)phenyl)-3-methoxybenzamide]",< 0.5
10,"CCC(=O)Nc1ccc(-c2cn3ccccc3n2)cc1 [III-1002, N-(4-(Imidazo[1,2-a]pyridin-2-yl)phenyl)propionamide]",< 50

# The next lines start with the values.
row,IC50 [µM],SMILES
1,< 0.5,"Cc1cccc(N2CCN(C(=O)CN3C(=O)CSc4c3c(C)nn4-c3ccccc3)CC2C)c1 (stereo not drawn) [II-1001, 3-Methyl-4-[2-(3-methyl-4-m-tolylpiperazin-1-yl)-2-oxoethyl]-1-phenyl-1,4-dihydro-pyrazolo[3,4-b][1,4]thiazin-5-one]"
2,< 0.5,"Cc1nn(-c2ccccc2)c2c1N(CC(=O)Nc1cccc(C(F)(F)F)c1)C(=O)CS2 [II-1002, 2-(3-Methyl-5-oxo-1-phenyl-5,6-dihydro-1H-pyrazolo[3,4-b][1,4]thiazin-4-yl)-N-(3-trifluoromethylphenyl)acetamide]"
3,< 0.5,"Cc1nn(-c2ccccc2)c2c1N(CC(=O)N1CCN(c3ccc(Cl)cc3)CC1)C(=O)CS2 [II-1012, 4-{2-[4-(4-Chlorophenyl)piperazin-1-yl]-2-oxoethyl}-3-methyl-1-phenyl-1,4-dihydropyrazolo[3,4-b][1,4]thiazin-5-one]"
4,< 0.5,"Cc1nn(-c2ccccc2)c2c1N(CCCC(=O)N1CCN(c3ccccc3)CC1)C(=O)CS2 [II-1023, 3-Methyl-4-[4-oxo-4-(4-phenylpiperazin-1-yl)butyl]-1-phenyl-1,4-dihydropyrazolo[3,4-b][1,4]thiazin-5-one]"
5,< 0.5,"Cc1nn(-c2ccccc2)c2c1N(CCCC(=O)N1CCN(c3ccccn3)CC1)C(=O)CS2 [II-1025, 3-Methyl-4-[4-oxo-4-((4-pyridin-2-yl)piperazin-1-yl)butyl]-1-phenyl-1,4-dihydropyrazolo[3,4-b][1,4]thiazin-5-one]"
